Literature values in article PMC8537947, “Improved Radiolytic Stability of a ^68Ga-labelled Collagelin Analogue for the Imaging of Fibrosis” (Pharmaceuticals, 2021).

Legend:
[1] = tested on: frozen sections of dog heart affected by fibrosis; conditions: cited from earlier work
From the text: The presence of excessive deposition of collagen was confirmed previously performing a Sirius Red histological assay on the adjacent tissue sections. The uptake of [^68Ga]Ga-NO2A-[Nle^13]-Col in the fibrotic tissue linearly correlated (R^2 = 0.84, Figure 2C) with the scoring of fibrosis, indicating a target density ranging between ...

collagen I = conditions: initial cyclic peptide analogues, earlier work of the authors; cited from earlier work
From the text: One of the targets for radioactive imaging agents is type I collagen which is the most abundant extracellular matrix protein [1, 2, 3, 4, 5, 6]. Collagelin, a cyclic peptide identified from the bacterial peptide library, presumably binds selectively to the triple helix structure of collagen. The aim of this study was to develop a PET tracer for the specific imaging of early active fibrosis via binding to monomer collagen. The uptake in bone, skin and other tissues rich in collagen cross-linked fibrils, and in diseased sites with established, mature collagen was expected to be low, ...

c[CPGRVXHGLHLGDDEGPC] (disulfide) [[^68Ga]Ga-NO2A-Col]
target density [1]: 2.0 fmol/mm^3 | Kd (collagen I): 2.3 ± 0.8 µM
